Test results from patent US12479840B2, “HMG-CoA reductase degradation inducing compound” (Uppthera, priority 2020, dated 2025).

Molecular target: T1, HMG-CoA reductase (Homo sapiens, UniProt P04035)
T1 construct: endogenous in cells; host or cells: HepG2 (Korea Cell Line Bank)
T1 sequence (P04035 1-888): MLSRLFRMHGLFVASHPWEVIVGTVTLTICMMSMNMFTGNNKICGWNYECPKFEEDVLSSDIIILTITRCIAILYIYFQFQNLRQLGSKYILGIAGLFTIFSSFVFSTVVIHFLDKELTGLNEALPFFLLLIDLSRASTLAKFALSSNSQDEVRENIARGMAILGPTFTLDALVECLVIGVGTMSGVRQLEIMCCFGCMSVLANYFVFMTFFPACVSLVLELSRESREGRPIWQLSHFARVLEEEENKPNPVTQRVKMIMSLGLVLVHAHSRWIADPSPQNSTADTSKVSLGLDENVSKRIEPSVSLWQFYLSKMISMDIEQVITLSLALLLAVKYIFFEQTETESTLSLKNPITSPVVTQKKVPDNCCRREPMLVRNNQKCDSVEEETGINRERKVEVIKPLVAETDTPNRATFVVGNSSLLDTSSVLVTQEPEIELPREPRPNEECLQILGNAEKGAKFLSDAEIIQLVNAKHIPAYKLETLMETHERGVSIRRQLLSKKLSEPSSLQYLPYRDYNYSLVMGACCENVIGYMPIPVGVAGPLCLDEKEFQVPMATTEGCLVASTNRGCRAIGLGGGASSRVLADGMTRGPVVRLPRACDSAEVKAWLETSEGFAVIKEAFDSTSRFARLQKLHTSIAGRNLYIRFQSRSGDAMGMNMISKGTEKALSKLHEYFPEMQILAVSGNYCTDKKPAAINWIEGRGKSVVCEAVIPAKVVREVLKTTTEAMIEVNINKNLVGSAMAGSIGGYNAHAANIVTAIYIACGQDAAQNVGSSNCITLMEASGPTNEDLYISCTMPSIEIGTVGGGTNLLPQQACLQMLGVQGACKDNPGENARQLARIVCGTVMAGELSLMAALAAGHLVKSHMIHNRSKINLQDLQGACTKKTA
Test: HMG-CoA reductase (HMGCR) degradation in HepG2 cells by western blotting
Format: cell-based
Conditions: treated for 18 hours, ratio of HMG-CoA reductase to GAPDH, read-out: DC50
Outline: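 HepG2 cells (passage P105–P110) treated 18 hours with compounds in 10-point three-fold dilutions from 3 μM. RIPA lysates (15 μg protein, BCA-quantified) run on SDS-PAGE and immunoblotted for HMGCR (1:500) with GAPDH (1:20000) as loading control, primary antibodies 16 hours at 4° C.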

Structure (SMILES) | DC50
C[C@H]1C=C2C=C[C@H](C)[C@H](CC[C@@H]3C[C@@H](O[Si](C)(C)C(C)(C)C)CC(=O)O3)[C@H]2[C@@H](OC(=O)NCCCOCCCCNc2cccc3c2C(=O)N(C2CCC(=O)NC2=O)C3=O)C1 (stereo partly drawn) [Compound 120, (1S,3R,7S,8S,8aR)-8-(2-((2R,4R)-4-((tert-butyldimethylsilyl)oxy)-6-oxotetrahydro-2H-pyran-2-yl)ethyl)-3,7-dimethyl-1,2,3,7,8,8a-hexahydronaphthalen-1-yl (3-(4-((2-(2,6-dioxopiperidin-3-yl)-1,3-dioxoisoindolin-4-yl)amino)butoxy)propyl)carbamate] | 0.05 to 0.5 µM
C[C@H]1C=C2C=C[C@H](C)[C@H](CC[C@@H]3C[C@@H](O)CC(=O)O3)[C@H]2[C@@H](OC(=O)NCCCOCCCCNc2cccc3c2C(=O)N(C2CCC(=O)NC2=O)C3=O)C1 (stereo partly drawn) [Compound 121, (1S,3R,7S,8S,8aR)-8-(2-((2R,4R)-4-hydroxy-6-oxotetrahydro-2H-pyran-2-yl)ethyl)-3,7-dimethyl-1,2,3,7,8,8a-hexahydronaphthalen-1-yl (3-(4-((2-(2,6-dioxopiperidin-3-yl)-1,3-dioxoisoindolin-4-yl)amino)butoxy)propyl)carbamate] | < 0.05 µM
C[C@H]1C=C2C=C[C@H](C)[C@H](CC[C@@H]3C[C@@H](O)CC(=O)O3)[C@H]2[C@@H](OC(=O)NCCCCCCN2CCC(Nc3cccc4c3C(=O)N(C3CCC(=O)NC3=O)C4=O)CC2)C1 (stereo partly drawn) [Compound 127, (1S,3R,7S,8S,8aR)-8-(2-((2R,4R)-4-hydroxy-6-oxotetrahydro-2H-pyran-2-yl)ethyl)-3,7-dimethyl-1,2,3,7,8,8a-hexahydronaphthalen-1-yl (6-(4-((2-(2,6-dioxo piperidin-3-yl)-1,3-dioxoisoindolin-4-yl)amino)piperidin-1-yl)hexyl)carbamate] | 0.05 to 0.5 µM
C[C@H]1C=C2C=C[C@H](C)[C@H](CC[C@@H]3C[C@@H](O[Si](C)(C)C(C)(C)C)CC(=O)O3)[C@H]2[C@@H](OC(=O)NCCCOC2CCN(C(=O)COc3cccc4c3C(=O)N(C3CCC(=O)NC3=O)C4=O)CC2)C1 (stereo partly drawn) [Compound 134, (1S,3R,7S,8S,8aR)-8-(2-((2R,4R)-4-((tert-butyldimethylsilyl)oxy)-6-oxotetrahydro-2H-pyran-2-yl)ethyl)-3,7-dimethyl-1,2,3,7,8,8a-hexahydronaphthalen-1-yl (3-((1-(2-((2-(2,6-dioxopiperidin-3-yl)-1,3-dioxoisoindolin-4-yl)oxy)acetyl)piperidin-4-yl)oxy)propyl)carbamate] | 0.05 to 0.5 µM

Other lines, results leading:

DC50 | Structure (SMILES)
< 0.05 µM | C[C@H]1C=C2C=C[C@H](C)[C@H](CC[C@@H]3C[C@@H](O[Si](C)(C)C(C)(C)C)CC(=O)O3)[C@H]2[C@@H](OC(=O)NCCOCCOCC#Cc2cccc3c2C(=O)N(C2CCC(=O)NC2=O)C3=O)C1 (stereo partly drawn) [Compound 114, (1S,3R,7S,8S,8aR)-8-(2-((2R,4R)-4-((tert-butyldimethylsilyl)oxy)-6-oxotetrahydro-2H-pyran-2-yl)ethyl)-3,7-dimethyl-1,2,3,7,8,8a-hexahydronaphthalen-1-yl (2-(2-((3-(2-(2,6-dioxopiperidin-3-yl)-1,3-dioxoisoindolin-4-yl)prop-2-yn-1-yl)oxy)ethoxy)ethyl)carbamate]
< 0.05 µM | C[C@H]1C=C2C=C[C@H](C)[C@H](CC[C@@H]3C[C@@H](O)CC(=O)O3)[C@H]2[C@@H](OC(=O)NCCOCCOCC#Cc2cccc3c2C(=O)N(C2CCC(=O)NC2=O)C3=O)C1 (stereo partly drawn) [Compound 115, (1S,3R,7S,8S,8aR)-8-(2-((2R,4R)-4-hydroxy-6-oxotetrahydro-2H-pyran-2-yl)ethyl)-3,7-dimethyl-1,2,3,7,8,8a-hexahydronaphthalen-1-yl (2-(2-((3-(2-(2,6-dioxopiperidin-3-yl)-1,3-dioxoisoindolin-4-yl)prop-2-yn-1-yl)oxy)ethoxy)ethyl)carbamate]
< 0.05 µM | C[C@H]1C=C2C=C[C@H](C)[C@H](CC[C@@H]3C[C@@H](O[Si](C)(C)C(C)(C)C)CC(=O)O3)[C@H]2[C@@H](OC(=O)NCCCCCN2CCC(Nc3cccc4c3C(=O)N(C3CCC(=O)NC3=O)C4=O)CC2)C1 (stereo partly drawn) [Compound 124, (1S,3R,7S,8S,8aR)-8-(2-((2R,4R)-4-((tert-butyldimethylsilyl)oxy)-6-oxotetrahydro-2H-pyran-2-yl)ethyl)-3,7-dimethyl-1,2,3,7,8,8a-hexahydronaphthalen-1-yl (5-(4-((2-(2,6-dioxopiperidin-3-yl)-1,3-dioxoisoindolin-4-yl)amino)piperidin-1-yl)pentyl)carbamate]
0.05 to 0.5 µM | C[C@H]1C=C2C=C[C@H](C)[C@H](CC[C@@H]3C[C@@H](O[Si](C)(C)C(C)(C)C)CC(=O)O3)[C@H]2[C@@H](OC(=O)NCCCCCCN2CCC(Nc3cccc4c3C(=O)N(C3CCC(=O)NC3=O)C4=O)CC2)C1 (stereo partly drawn) [Compound 125, (1S,3R,7S,8S,8aR)-8-(2-((2R,4R)-4-((tert-butyldimethylsilyl)oxy)-6-oxotetrahydro-2H-pyran-2-yl)ethyl)-3,7-dimethyl-1,2,3,7,8,8a-hexahydronaphthalen-1-yl (6-(4-((2-(2,6-dioxopiperidin-3-yl)-1,3-dioxoisoindolin-4-yl)amino)piperidin-1-yl)hexyl)carbamate]
< 0.05 µM | C[C@H]1C=C2C=C[C@H](C)[C@H](CC[C@@H]3C[C@@H](O)CC(=O)O3)[C@H]2[C@@H](OC(=O)NCCCCCN2CCC(Nc3cccc4c3C(=O)N(C3CCC(=O)NC3=O)C4=O)CC2)C1 (stereo partly drawn) [Compound 126, (1S,3R,7S,8S,8aR)-8-(2-((2R,4R)-4-hydroxy-6-oxotetrahydro-2H-pyran-2-yl)ethyl)-3,7-dimethyl-1,2,3,7,8,8a-hexahydronaphthalen-1-yl (5-(4-((2-(2,6-dioxopiperidin-3-yl)-1,3-dioxoisoindolin-4-yl)amino)piperidin-1-yl)pentyl)carbamate]
< 0.05 µM | C[C@H]1C=C2C=C[C@H](C)[C@H](CC[C@@H]3C[C@@H](O[Si](C)(C)C(C)(C)C)CC(=O)O3)[C@H]2[C@@H](OC(=O)NCCOCCNC(=O)COc2cccc3c2C(=O)N(C2CCC(=O)NC2=O)C3=O)C1 (stereo partly drawn) [Compound 128, (1S,3R,7S,8S,8aR)-8-(2-((2R,4R)-4-((tert-butyldimethylsilyl)oxy)-6-oxotetrahydro-2H-pyran-2-yl)ethyl)-3,7-dimethyl-1,2,3,7,8,8a-hexahydronaphthalen-1-yl (2-(2-(2-((2-(2,6-dioxopiperidin-3-yl)-1,3-dioxoisoindolin-4-yl)oxy)acetamido)ethoxy)ethyl)carbamate]
< 0.05 µM | C[C@H]1C=C2C=C[C@H](C)[C@H](CC[C@@H]3C[C@@H](O)CC(=O)O3)[C@H]2[C@@H](OC(=O)NCCOCCNC(=O)COc2cccc3c2C(=O)N(C2CCC(=O)NC2=O)C3=O)C1 (stereo partly drawn) [Compound 129, (1S,3R,7S,8S,8aR)-8-(2-((2R,4R)-4-hydroxy-6-oxotetrahydro-2H-pyran-2-yl)ethyl)-3,7-dimethyl-1,2,3,7,8,8a-hexahydronaphthalen-1-yl (2-(2-(2-((2-(2,6-dioxopiperidin-3-yl)-1,3-dioxoisoindolin-4-yl)oxy)acetamido)ethoxy)ethyl)carbamate]
